“And” between values parts separate entries of the source, which are not always exact repeats. Equal values may be shown once.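 Assay format: 96-well plates, 48-hour exposure. GI50 is the concentration that inhibits growth by half.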 The source made the active and inactive calls. No stated cut-off is given here; in the data, active = GI50 up to about 1.1 µM and inactive = higher.
Assays:
Experiment in all cases: growth of human tumour cells (NCI), 48 h
RPMI-8226 = tested on: RPMI-8226
MDA-N = tested on: MDA-N
KM12 = tested on: KM12
OVCAR-5 = tested on: OVCAR-5
A549 = tested on: A549
Malme-3M = tested on: Malme-3M
LOX IMVI = tested on: LOX IMVI
CCRF-CEM = tested on: CCRF-CEM
MOLT-4 = tested on: MOLT-4
T47D = tested on: T47D
SK-MEL-28 = tested on: SK-MEL-28
ACHN = tested on: ACHN
MDA-MB-435 = tested on: MDA-MB-435
HCT-15 = tested on: HCT-15
SF-539 = tested on: SF-539
EKVX = tested on: EKVX
M14 = tested on: M14
NCI/ADR-RES = tested on: NCI/ADR-RES
MCF7 = tested on: MCF7
SN12C = tested on: SN12C
HCC 2998 = tested on: HCC 2998
K562 = tested on: K562
RXF 393 = tested on: RXF 393
DU-145 = tested on: DU-145
HL-60 = tested on: HL-60
UACC-257 = tested on: UACC-257
NCI-H460 = tested on: NCI-H460
UO-31 = tested on: UO-31
SW-620 = tested on: SW-620
PC-3 = tested on: PC-3
NCI-H226 = tested on: NCI-H226
UACC-62 = tested on: UACC-62
HT-29 = tested on: HT-29
HCT-116 = tested on: HCT-116
SK-OV-3 = tested on: SK-OV-3
CAKI-1 = tested on: CAKI-1
IGROV-1 = tested on: IGROV-1
SNB-19 = tested on: SNB-19
OVCAR-8 = tested on: OVCAR-8
COLO 205 = tested on: COLO 205
SR = tested on: SR
U-251 = tested on: U-251
OVCAR-3 = tested on: OVCAR-3
NCI-H522 = tested on: NCI-H522
SF-268 = tested on: SF-268
SF-295 = tested on: SF-295
HOP-62 = tested on: HOP-62
MDA-MB-231 = tested on: MDA-MB-231
SK-MEL-5 = tested on: SK-MEL-5
TK-10 = tested on: TK-10
OVCAR-4 = tested on: OVCAR-4
Hs-578T = tested on: Hs-578T

Measured: GI50

CC(=O)OCC1OC(n2c(-c3ccc(Cl)cc3)ccc(C#N)c2=S)C(OC(C)=O)C(OC(C)=O)C1OC(C)=O (centres undefined)
inactive: RPMI-8226 > 100 µM and 56 µM | MDA-N > 100 µM | KM12 > 100 µM | OVCAR-5 > 100 µM | A549 83.9 µM and 66.5 µM | Malme-3M > 61.1 µM and 45 µM | LOX IMVI 54.1 µM | CCRF-CEM > 100 µM | MOLT-4 > 100 µM and 51.3 µM | T47D 30.6 µM and 48.9 µM | SK-MEL-28 > 100 µM | ACHN 68.1 µM and 58.5 µM | MDA-MB-435 53.3 µM | SF-539 30.4 µM and 39.1 µM | EKVX 17.6 µM and 15.1 µM | M14 76 µM and > 84.7 µM | NCI/ADR-RES 74 µM | MCF7 > 100 µM and 50.5 µM | SN12C > 100 µM | HCC 2998 > 100 µM | K562 > 100 µM | RXF 393 20 µM and 13.3 µM | DU-145 74.8 µM and > 77.1 µM | HL-60 > 100 µM | UACC-257 > 100 µM and 73.6 µM | NCI-H460 > 60.4 µM and 55.5 µM | UO-31 29.6 µM and 33.6 µM | SW-620 > 100 µM | PC-3 > 100 µM and 55.5 µM | NCI-H226 27 µM and 45.9 µM | UACC-62 37.4 µM and 31.6 µM | HT-29 > 100 µM | HCT-116 77.4 µM and 61.2 µM
> 100 µM: HCT-15

CCC(C(=O)c1ccc(OC)c(OC)c1)N(C(=O)C(F)(F)F)C(C)c1ccccc1 (centres undefined)
inactive: RPMI-8226 > 100 µM | MDA-N > 100 µM | OVCAR-5 > 100 µM | A549 > 100 µM | Malme-3M > 100 µM | LOX IMVI > 100 µM | CCRF-CEM > 100 µM | MOLT-4 > 100 µM | T47D 91 µM | SK-MEL-28 > 100 µM | SK-OV-3 > 100 µM | CAKI-1 > 100 µM | IGROV-1 > 100 µM | SNB-19 > 100 µM | OVCAR-8 > 100 µM | ACHN > 100 µM | MDA-MB-435 > 100 µM | COLO 205 > 100 µM | EKVX > 100 µM | M14 > 100 µM | NCI/ADR-RES > 100 µM | SR > 100 µM | MCF7 > 100 µM | HCC 2998 > 100 µM | U-251 > 100 µM | K562 > 100 µM | OVCAR-3 > 100 µM | DU-145 > 100 µM | NCI-H522 > 100 µM | SF-268 83.9 µM | HL-60 > 100 µM | SF-295 > 100 µM | UACC-257 > 100 µM | NCI-H460 > 100 µM | UO-31 > 100 µM | HOP-62 > 100 µM | MDA-MB-231 > 100 µM | SW-620 > 100 µM | PC-3 > 100 µM | UACC-62 > 100 µM | SK-MEL-5 > 100 µM | TK-10 > 100 µM | HT-29 > 100 µM | HCT-116 > 100 µM
> 100 µM: HCT-15

CC[C@@H](CCCCC1CC[C@H]2CC(=O)C[C@@H]12)OC (some centres undefined)
inactive: RPMI-8226 > 100 µM | MDA-N > 100 µM | KM12 > 100 µM | Malme-3M > 100 µM | MDA-MB-435 > 100 µM | EKVX > 100 µM | M14 > 100 µM | SR > 100 µM | K562 33.7 µM | HL-60 36 µM | HOP-62 > 100 µM | PC-3 > 100 µM | UACC-62 > 100 µM | OVCAR-4 > 100 µM | Hs-578T > 100 µM

Source: ChEMBL document CHEMBL1201862, “PubChem BioAssay data set” (2004)
